Assay results: ChEMBL document CHEMBL1201862, “PubChem BioAssay data set” (2004)
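Assay format: 96-well plates, 48-hour exposure. Abbreviation: GI50, concentration required for 50% inhibition of growth.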 Activity calls are given as the source filed them. No stated cut-off is given here; in the data, active = GI50 up to about 1.1 µM and inactive = higher.

What was measured:
Assay in all cases: NCI-60 cell line screen, 48 h
786-0 = tested on: 786-0
A498 = tested on: A498
ACHN = tested on: ACHN
HCT-116 = tested on: HCT-116
IGROV-1 = tested on: IGROV-1
KM12 = tested on: KM12
MDA-MB-231 = tested on: MDA-MB-231
MDA-N = tested on: MDA-N
NCI-H522 = tested on: NCI-H522
OVCAR-3 = tested on: OVCAR-3
OVCAR-4 = tested on: OVCAR-4
PC-3 = tested on: PC-3
RPMI-8226 = tested on: RPMI-8226
SK-OV-3 = tested on: SK-OV-3
SN12C = tested on: SN12C
SNB-75 = tested on: SNB-75
TK-10 = tested on: TK-10
U-251 = tested on: U-251
SK-MEL-28 = tested on: SK-MEL-28
SNB-19 = tested on: SNB-19

Measured: GI50

OC12COc3ccccc3C1Oc1ccccc1C2 (stereo not given)
inactive: 786-0 > 100 µM | A498 > 100 µM | ACHN > 100 µM | HCT-116 > 100 µM | IGROV-1 > 100 µM | KM12 > 100 µM | MDA-MB-231 > 100 µM | MDA-N > 100 µM | NCI-H522 > 100 µM | OVCAR-3 > 100 µM | OVCAR-4 > 100 µM | PC-3 > 100 µM | RPMI-8226 > 100 µM | SK-OV-3 > 100 µM | SN12C > 100 µM | SNB-75 > 100 µM | TK-10 > 100 µM | U-251 > 100 µM

O=C1Nc2c(Cl)cc(Cl)cc2/C1=N/NC(=O)c1ccncc1
inactive: 786-0 17.4 µM | A498 > 100 µM | ACHN 38 µM | HCT-116 19.1 µM | IGROV-1 22.9 µM | KM12 30.9 µM | MDA-MB-231 17.3 µM | MDA-N 15.7 µM | OVCAR-3 15.5 µM | OVCAR-4 22.2 µM | PC-3 15.7 µM | SK-MEL-28 22.6 µM | SK-OV-3 25.6 µM | SN12C 26.2 µM | SNB-19 > 100 µM | SNB-75 46.3 µM | TK-10 73.1 µM | U-251 18.1 µM

C=CCN1C(=O)CC(=O)N(NC2=NNC3(C(=O)N2)c2ccccc2-c2ccccc23)C1=S
inactive: 786-0 38.5 µM | A498 34.8 µM | ACHN 34.4 µM | HCT-116 28.4 µM | IGROV-1 38.9 µM | MDA-MB-231 > 100 µM | MDA-N > 100 µM | NCI-H522 32.6 µM | OVCAR-3 28.4 µM | OVCAR-4 29.4 µM | PC-3 23.9 µM | SK-MEL-28 49.9 µM | SK-OV-3 42.2 µM | SN12C 37.2 µM | SNB-19 48.8 µM | SNB-75 48.2 µM | TK-10 64.1 µM | U-251 38 µM

CC(=O)C1(C)CC(C#N)(C#N)C(C#N)=C1N (stereo not given)
inactive: 786-0 > 100 µM | A498 > 100 µM | ACHN > 100 µM | HCT-116 > 100 µM | IGROV-1 > 100 µM | KM12 > 100 µM | MDA-MB-231 > 100 µM | MDA-N > 100 µM | NCI-H522 > 100 µM | OVCAR-3 > 100 µM | OVCAR-4 > 100 µM | PC-3 > 100 µM | RPMI-8226 > 100 µM | SK-OV-3 > 100 µM | SN12C > 100 µM | SNB-19 > 100 µM | SNB-75 > 100 µM | TK-10 > 100 µM | U-251 > 100 µM

Cc1ccc(S(=O)(=O)C2=Cc3ccccc3C2(O)c2ccccc2)cc1 (stereo not given)
inactive: 786-0 > 10 µM | A498 > 10 µM | ACHN 34.3 µM | HCT-116 33.3 µM | IGROV-1 47.1 µM | KM12 21.4 µM | MDA-MB-231 17.7 µM | MDA-N 18.7 µM | NCI-H522 21.5 µM | PC-3 27.4 µM | RPMI-8226 15.8 µM | SK-MEL-28 16.3 µM | SK-OV-3 29.3 µM | SN12C 17.4 µM | SNB-19 43.8 µM | SNB-75 31 µM | TK-10 35.3 µM | U-251 26.7 µM

CCOc1ccc(C(=O)/C=C2/Nc3ccccc3N/C2=C/C(=O)c2ccc(OCC)cc2)cc1
inactive: 786-0 80 µM | A498 > 100 µM | ACHN > 100 µM | HCT-116 78.2 µM | IGROV-1 57.9 µM | MDA-MB-231 > 100 µM | MDA-N > 100 µM | NCI-H522 > 100 µM | OVCAR-3 > 100 µM | OVCAR-4 72.3 µM | PC-3 > 100 µM | RPMI-8226 > 100 µM | SK-MEL-28 > 100 µM | SK-OV-3 > 100 µM | SN12C > 100 µM | SNB-19 > 100 µM | TK-10 > 100 µM | U-251 > 100 µM

O=C(OCC1CCCN2CCCCC12)c1cccnc1 (stereo not given)
inactive: 786-0 > 100 µM | A498 > 100 µM | ACHN > 100 µM | HCT-116 > 100 µM | KM12 > 100 µM | MDA-MB-231 > 100 µM | MDA-N > 100 µM | OVCAR-4 > 100 µM | PC-3 > 100 µM | RPMI-8226 > 100 µM | SK-MEL-28 > 100 µM | SK-OV-3 > 100 µM | SN12C > 100 µM | SNB-19 > 100 µM | SNB-75 > 100 µM | TK-10 > 100 µM | U-251 > 100 µM

N#C/C(N)=C(\C#N)NC(=O)C(=O)N/C(C#N)=C(\N)C#N
inactive: 786-0 > 100 µM | A498 > 100 µM | ACHN > 100 µM | HCT-116 > 100 µM | IGROV-1 > 100 µM | KM12 > 100 µM | MDA-MB-231 > 100 µM | MDA-N > 100 µM | NCI-H522 > 100 µM | OVCAR-3 13 µM | OVCAR-4 > 100 µM | PC-3 > 100 µM | RPMI-8226 > 100 µM | SK-MEL-28 > 100 µM | SN12C > 100 µM | SNB-19 > 100 µM | SNB-75 29.3 µM | TK-10 > 100 µM | U-251 > 100 µM
